IC50 data for 33 molecules are collected here from patent publication US9056832B2, “Pyridine compounds and the users thereof” (Purdue Pharma L.P., priority 2010, dated 2015).

Some results are limits rather than exact numbers.

As usually defined, the IC50 is the concentration that gives 50% inhibition.

The target in the first assay is human Nav1.7 (Homo sapiens (Human), UniProt Q15858). The assay is described as follows: FLIPR or FLIPR TETRA sodium dye assay with KCl and test article pre-incubation. The class given is cell-based. Conditions: read-out: Nav1.7 IC50 (μM) ± SEM.
Chain of human Nav1.7 (Q15858 other isoform, or with tags, fused parts or gaps): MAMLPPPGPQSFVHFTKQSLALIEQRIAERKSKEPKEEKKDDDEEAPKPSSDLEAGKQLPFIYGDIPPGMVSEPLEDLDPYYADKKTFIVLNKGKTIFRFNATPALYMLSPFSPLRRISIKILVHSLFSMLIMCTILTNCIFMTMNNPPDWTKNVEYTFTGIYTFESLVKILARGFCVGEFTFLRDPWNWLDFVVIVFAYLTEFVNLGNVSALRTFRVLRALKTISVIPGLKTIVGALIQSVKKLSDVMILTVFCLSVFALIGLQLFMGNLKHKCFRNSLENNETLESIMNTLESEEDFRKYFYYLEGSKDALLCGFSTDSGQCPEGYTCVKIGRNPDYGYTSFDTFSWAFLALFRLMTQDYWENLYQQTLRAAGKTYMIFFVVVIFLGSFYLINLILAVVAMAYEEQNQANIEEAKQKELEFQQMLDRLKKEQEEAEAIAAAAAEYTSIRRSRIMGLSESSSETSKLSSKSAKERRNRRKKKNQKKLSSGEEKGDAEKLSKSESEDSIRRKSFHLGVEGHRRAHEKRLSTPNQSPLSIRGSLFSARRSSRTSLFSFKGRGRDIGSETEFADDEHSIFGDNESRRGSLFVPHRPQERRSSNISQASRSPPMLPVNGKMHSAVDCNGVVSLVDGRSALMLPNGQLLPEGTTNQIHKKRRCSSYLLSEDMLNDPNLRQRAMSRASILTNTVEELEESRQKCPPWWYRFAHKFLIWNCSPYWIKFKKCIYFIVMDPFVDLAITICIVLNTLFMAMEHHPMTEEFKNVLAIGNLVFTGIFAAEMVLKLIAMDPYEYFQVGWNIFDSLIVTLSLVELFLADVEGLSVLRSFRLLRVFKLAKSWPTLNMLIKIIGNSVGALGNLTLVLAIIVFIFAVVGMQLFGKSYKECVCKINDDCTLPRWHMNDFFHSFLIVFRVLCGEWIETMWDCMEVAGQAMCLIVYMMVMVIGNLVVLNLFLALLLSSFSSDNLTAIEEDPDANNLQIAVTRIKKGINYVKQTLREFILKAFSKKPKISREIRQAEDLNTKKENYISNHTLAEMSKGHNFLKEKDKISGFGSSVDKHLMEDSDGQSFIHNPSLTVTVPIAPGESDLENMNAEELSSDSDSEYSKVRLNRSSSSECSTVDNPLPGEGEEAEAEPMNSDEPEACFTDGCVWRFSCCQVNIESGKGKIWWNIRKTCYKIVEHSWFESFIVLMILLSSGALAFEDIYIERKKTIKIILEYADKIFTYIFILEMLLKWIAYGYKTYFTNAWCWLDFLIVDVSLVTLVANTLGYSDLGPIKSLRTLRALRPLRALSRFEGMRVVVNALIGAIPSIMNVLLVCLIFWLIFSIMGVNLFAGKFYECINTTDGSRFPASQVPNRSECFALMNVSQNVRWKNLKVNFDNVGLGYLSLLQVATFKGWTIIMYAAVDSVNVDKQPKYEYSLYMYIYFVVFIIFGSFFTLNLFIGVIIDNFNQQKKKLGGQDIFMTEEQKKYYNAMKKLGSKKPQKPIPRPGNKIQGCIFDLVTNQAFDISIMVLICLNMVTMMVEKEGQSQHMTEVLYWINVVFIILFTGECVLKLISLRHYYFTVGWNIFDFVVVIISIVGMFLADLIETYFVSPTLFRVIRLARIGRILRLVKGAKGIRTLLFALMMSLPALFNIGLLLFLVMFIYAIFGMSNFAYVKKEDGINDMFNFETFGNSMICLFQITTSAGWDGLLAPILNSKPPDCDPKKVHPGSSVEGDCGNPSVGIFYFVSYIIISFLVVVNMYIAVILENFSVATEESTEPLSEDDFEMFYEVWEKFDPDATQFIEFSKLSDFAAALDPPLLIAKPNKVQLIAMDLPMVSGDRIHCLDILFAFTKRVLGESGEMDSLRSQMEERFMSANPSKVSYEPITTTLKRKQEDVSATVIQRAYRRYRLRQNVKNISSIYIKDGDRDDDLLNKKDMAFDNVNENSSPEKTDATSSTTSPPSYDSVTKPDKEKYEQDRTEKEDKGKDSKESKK
Take `NC(=O)c1cc(O)cc(-c2ccc(Oc3ccc(F)cc3)cc2)n1` [compound 136, 6-(4-(4-fluorophenoxy)phenyl)-4-hydroxy picolinamide]: the IC50 is > 20 µM.
Same read-out and setting: next, `NC(=O)c1cc(-c2ccc(-c3ccc(F)cc3)cc2)cc([C@H](O)CO)n1` [compound 160, 6-((S)-1,2-Dihydroxy-ethyl)-4-(4′-fluoro-biphenyl-4-yl)pyridine-2-carboxylic acid amide]: 0.49 ± 0.12 µM.
The same measure, in the same setting: next, `C[C@H](Nc1cc(C(N)=O)nc(-c2ccc(Oc3ccc(F)cc3)cc2)c1)C(N)=O` [compound 167, (S)-4-((1-amino-1-oxopropan-2-yl)amino)-6-(4-(4-fluorophenoxy)phenyl) picolinamide]: 0.73 ± 0.1 µM.

Staying with this assay, now noted: recombinant human Nav1.7 in HEK293 cells; CoroNa Green sodium dye; veratridine + scorpion venom; read-out: Nav1.7 IC50 (μM) ± SEM.
`NC(=O)c1cc([C@@H](O)CO)cc(-c2ccc(Oc3ccc(C(F)(F)F)cn3)cc2)n1` [compound 132, (R)-4-(1,2-dihydroxyethyl)-6-(4-((5-(trifluoromethyl)pyridin-2-yl)oxy)phenyl)picolinamide]: the IC50 amounted to 2.78 ± 0.75 µM.
On the same count and under the same terms, next, `NC(=O)c1cc(NC(CO)CO)cc(-c2ccc(Oc3ccc(F)cc3)cc2)n1` [compound 133, 4-((1,3-dihydroxypropan-2-yl)amino)-6-(4-(4-fluorophenoxy)phenyl) picolinamide]: 3.08 ± 0.59 µM; `NC(=O)c1cc(C[C@@H](O)CO)cc(-c2ccc(Oc3ccc(F)cc3)cc2)n1` [compound 134, (R)-4-(2,3-dihydroxypropyl)-6-(4-(4-fluorophenoxy)phenyl)picolinamide]: 3.9 ± 0.34 µM.
Turning to `NC(=O)c1cc(C[C@H](O)CO)cc(-c2ccc(Oc3ccc(F)cc3)cc2)n1` [compound 135, (S)-4-(2,3-dihydroxypropyl)-6-(4-(4-fluorophenoxy)phenyl)picolinamide], the IC50 is 7.26 ± 0.34 µM.
Still for that read-out and setting: next, `O=S(=O)(Nc1ccc(-c2cccc([C@H](O)CO)n2)cc1)c1ccc(F)cc1` [compound 137, (S)-N-(4-(6-(1,2-dihydroxyethyl)pyridin-2-yl)phenyl)-4-fluorobenzene sulfonamide]: > 20 µM; `NC(=O)c1cc([C@H](O)CO)cc(-c2ccc(Oc3ccc(Cl)cc3F)cc2)n1` [compound 140, (S)-6-(4-(4-chloro-2-fluorophenoxy)phenyl)-4-(1,2-dihydroxyethyl) picolinamide]: 0.07 ± 0.01 µM.
As for `NC(=O)c1cc([C@@H](O)CO)cc(-c2ccc(Oc3ccc(Cl)cc3F)cc2)n1` [compound 141, (R)-6-(4-(4-chloro-2-fluorophenoxy)phenyl)-4-(1,2-dihydroxyethyl) picolinamide], the IC50 is 0.07 ± 0.01 µM.
On the same count and under the same terms, next, `NC(=O)c1cc([C@@H](O)CO)cc(-c2cccc(Oc3ccc(F)cc3)c2)n1` [compound 142, 4-((R)-1,2-dihydroxy-ethyl)-6-[3-(4-fluoro-phenoxy)-phenyl]-pyridine-2-carboxylic acid amide]: 5.3 ± 1.6 µM.
Still for that read-out and setting: next, `NC(=O)c1cc(-c2ccc(Oc3ccc(F)cc3)cc2)cc(N(CC(=O)O)c2ccccc2)n1` [compound 143, ({6-Carbamoyl-4-[4-(4-fluoro-phenoxy)-phenyl]-pyridin-2-yl}phenyl-amino)-acetic acid]: > 20 µM; `NC(=O)c1cc(-c2ccc(Oc3ccc(F)cc3)cc2)cc(N(CCC(=O)O)c2ccccc2)n1` [compound 144, 3-({6-Carbamoyl-4-[4-(4-fluoro-phenoxy)-phenyl]-pyridin-2-yl}phenyl-amino)-propionic acid]: > 20 µM; `NC(=O)c1cc(N(CCC(=O)O)c2ccccc2)cc(-c2ccc(Oc3ccc(F)cc3)cc2)n1` [compound 145, 3-({2-Carbamoyl-6-[4-(4-fluoro-phenoxy)-phenyl]-pyridin-4-yl}phenyl-amino)-propionic acid]: 1.25 ± 0.03 µM.
`CN(c1ccccc1)c1cc(-c2ccc(Oc3ccc(C#N)cc3)cc2)cc(C(N)=O)n1` [compound 146, 4-[4-(4-Cyano-phenoxy)-phenyl]-6-(methyl-phenyl-amino)-pyridine2-carboxylic acid amide]: the IC50 was 0.09 ± 0.004 µM.
Still for that read-out and setting: the result for `CN(c1ccccc1)c1cc(C(N)=O)nc(-c2ccc(Oc3ccc(C#N)cc3)cc2)c1` [compound 147, 6-[4-(4-Cyano-phenoxy)-phenyl]-4-(methyl-phenyl-amino)-pyridine-2-carboxylic acid amide] reads 1.6 ± 0.26 µM; that for `CN(c1ccccc1)c1cc(-c2ccc(Oc3ccc(C(F)(F)F)cc3)cc2)cc(C(N)=O)n1` [compound 148, 6-(Methyl-phenyl-amino)-4-[4-(4-trifluoromethyl-phenoxy)phenyl]-pyridine-2-carboxylic acid amide], 0.25 ± 0.08 µM.
Regarding `CN(c1ccccc1)c1cc(C(N)=O)nc(-c2ccc(Oc3ccc(C(F)(F)F)cc3)cc2)c1` [compound 149, 4-(Methyl-phenyl-amino)-6-[4-(4-trifluoromethyl-phenoxy)phenyl]-pyridine-2-carboxylic acid amide], the IC50 fell in the range of 10 to 20 µM.
Still for that read-out and setting: next, `NC(=O)c1cc(N(CCc2nn[nH]n2)c2ccccc2)cc(-c2ccc(Oc3ccc(F)cc3)cc2)n1` [compound 150, 6-[4-(4-Fluoro-phenoxy)-phenyl]-4-{phenyl-[2-(2H-tetrazol-5-yl)-ethyl]-amino}-pyridine-2-carboxylic acid amide]: 0.46 ± 0.04 µM.
Same read-out and setting: the result for `NC(=O)c1cc(-c2ccc(Oc3ccc(F)cc3)cc2)cc(N(CCc2nn[nH]n2)c2ccccc2)n1` [compound 151, 4-[4-(4-Fluoro-phenoxy)-phenyl]-6-{phenyl-[2-(2H-tetrazol-5-yl)-ethyl]-amino}-pyridine-2-carboxylic acid amide] reads 0.16 ± 0.03 µM; that for `O=C(O)c1cc(N(CCc2nn[nH]n2)c2ccccc2)cc(-c2ccc(Oc3ccc(F)cc3)cc2)n1` [compound 152, 6-[4-(4-Fluoro-phenoxy)-phenyl]-4-{phenyl-[2-(2H-tetrazol-5-yl)ethyl]-amino}-pyridine-2-carboxylic acid], 1.87 ± 0.68 µM.
The same measure, in the same setting: the result for `O=C(O)c1cc(-c2ccc(Oc3ccc(F)cc3)cc2)cc(N(CCc2nn[nH]n2)c2ccccc2)n1` [compound 153, 4-[4-(4-Fluoro-phenoxy)-phenyl]-6-{phenyl-[2-(2H-tetrazol-5-yl)ethyl]-amino}-pyridine-2-carboxylic acid] reads 2.13 ± 0.55 µM; that for `NC(=O)c1cc([C@H](O)CO)cc(-c2ccc(-c3ccc(F)cc3)cc2)n1` [compound 154, 4-((S)-1,2-Dihydroxy-ethyl)-6-(4′-fluoro-biphenyl-4-yl)pyridine-2-carboxylic acid amide], 1.12 ± 0.07 µM.
As for `NC(=O)c1cc([C@@H](O)CO)cc(-c2ccc(-c3ccc(F)cc3)cc2)n1` [compound 155, 4-((R)-1,2-Dihydroxy-ethyl)-6-(4′-fluoro-biphenyl-4-yl)pyridine-2-carboxylic acid amide], the IC50 was 2.78 ± 0.61 µM.
For `NC(=O)c1cc(-c2ccc(Oc3ccc(OC(F)(F)F)cc3)cc2)cc([C@H](O)CO)n1` [compound 156, 6-((S)-1,2-Dihydroxy-ethyl)-4-[4-(4-trifluoromethoxy-phenoxy)phenyl]-pyridine-2-carboxylic acid amide], the half-maximal inhibitory concentration (IC50) was determined as 0.13 ± 0.02 µM.
Same read-out and setting: the result for `NC(=O)c1cc(-c2ccc(Oc3ccc(OC(F)(F)F)cc3)cc2)cc([C@@H](O)CO)n1` [compound 157, 6-((R)-1,2-Dihydroxy-ethyl)-4-[4-(4-trifluoromethoxy-phenoxy)phenyl]-pyridine-2-carboxylic acid amide] reads 0.12 ± 0.008 µM; that for `NC(=O)c1cc(-c2ccc(Oc3cccc(OC(F)(F)F)c3)cc2)cc([C@H](O)CO)n1` [compound 158, 6-((S)-1,2-Dihydroxy-ethyl)-4-[4-(3-trifluoromethoxy-phenoxy)phenyl]-pyridine-2-carboxylic acid amide], 0.16 ± 0.01 µM.
Take `NC(=O)c1cc([C@H](O)CO)cc(-c2ccc(Oc3ccc(OC(F)(F)F)cc3)cc2)n1` [compound 159, 4-((S)-1,2-Dihydroxy-ethyl)-6-[4-(4-trifluoromethoxy-phenoxy)phenyl]-pyridine-2-carboxylic acid amide]: the IC50 was 0.3 ± 0.02 µM.
On the same count and under the same terms, next, `NC(=O)c1cc([C@@H](O)CO)cc(-c2ccc(Oc3ccc(OC(F)(F)F)cc3)cc2)n1` [compound 161, 4-((R)-1,2-Dihydroxy-ethyl)-6-[4-(4-trifluoromethoxy-phenoxy)phenyl]-pyridine-2-carboxylic acid amide]: 1.38 ± 0.2 µM; `NC(=O)c1cc([C@H](O)CO)cc(-c2ccc(Oc3cccc(OC(F)(F)F)c3)cc2)n1` [compound 163, 4-((S)-1,2-Dihydroxy-ethyl)-6-[4-(3-trifluoromethoxy-phenoxy)phenyl]-pyridine-2-carboxylic acid amide]: 0.63 ± 0.07 µM.
As for `NC(=O)c1cc([C@@H](O)CO)cc(-c2ccc(Oc3cccc(OC(F)(F)F)c3)cc2)n1` [compound 164, 4-((R)-1,2-Dihydroxy-ethyl)-6-[4-(3-trifluoromethoxy-phenoxy)phenyl]-pyridine-2-carboxylic acid amide], the IC50 stood at 0.49 ± 0.1 µM.
Consider `C[C@H](Nc1cc(C#N)nc(-c2ccc(Oc3ccc(F)cc3)cc2)c1)C(N)=O` [compound 165, (S)-2-((2-cyano-6-(4-(4-fluorophenoxy)phenyl)pyridin-4-yl)amino)propanamide], for which the IC50 stood at 1.97 ± 0.49 µM.
Same read-out and setting: next, `C[C@H](Nc1cc(C#N)cc(-c2ccc(Oc3ccc(F)cc3)cc2)n1)C(N)=O` [compound 166, (S)-2-((4-cyano-6-(4-(4-fluorophenoxy)phenyl)pyridin-2-yl)amino)propanamide]: 4.32 ± 1 µM.
